# Experimental data as given in ChEMBL document CHEMBL3046391, “Acute toxicity and sublethal effects of methoxyfenozide and thiodicarb on survival, development and reproduction of Helicoverpa armigera (Lepidoptera: Noctuidae)” (2013).
# Key:
# Assay type in all cases: functional
# Helicoverpa armigera [1] = assay: Insecticidal activity against Helicoverpa armigera pupae assessed as increase in pupal development time at LC30 concentration treated during third-instar larval stage for 24 hr
# Helicoverpa armigera [2] = assay: Insecticidal activity against Helicoverpa armigera adults emerged from compound-treated third-instar larval stage assessed as decrease in longevity rate at LC30 concentration; parameters: scale not given: the % may be the effect or the level left
# Helicoverpa armigera [3] = assay: Insecticidal activity against third-instar larval stage of Helicoverpa armigera fed with artificial diet containing compound assessed as increase in larval development time at LC30 concentration incubated for 24 hr
# Helicoverpa armigera [4] = assay: Insecticidal activity against Helicoverpa armigera adults emerged from compound-treated third-instar larval stage assessed as decrease in fecundity rate at LC30 concentration; parameters: scale not given: the % may be the effect or the level left
# Helicoverpa armigera [5] = assay: Insecticidal activity against Helicoverpa armigera fed with artificial diet containing compound assessed as mortality at LC30 concentration measured at 24 hr intervals beginning at 24 hr after initial drug exposure
# Helicoverpa armigera [6] = assay: Insecticidal activity against Helicoverpa armigera assessed as pupal weight at LC30 concentration treated during third-instar larval stage for 24 hr (reference value: 311 +/-9 mg)
# Helicoverpa armigera [7] = assay: Insecticidal activity against third-instar larval stage of Helicoverpa armigera fed with artificial diet containing compound assessed as mortality measured at 24 hr intervals beginning at 24 hr after initial drug exposure; conditions: for LC50: Helicoverpa armigera, Instar larval stage, 24 h
# Helicoverpa armigera [8] = assay: Insecticidal activity against third-instar larval stage of Helicoverpa armigera fed with artificial diet containing compound assessed as mortality at LC30 concentration measured at 24 hr intervals beginning at 24 hr after initial drug exposure
compound,measurement,setting,value
COc1cccc(C(=O)NN(C(=O)c2cc(C)cc(C)c2)C(C)(C)C)c1C [METHOXYFENOZIDE],Time,Helicoverpa armigera [1],2.3 days
same,Activity,Helicoverpa armigera [2],27.5%
same,Time,Helicoverpa armigera [3],2.1 days
same,Activity,Helicoverpa armigera [4],35%
same,mortality,Helicoverpa armigera [5],32%
same,Activity,Helicoverpa armigera [6],253 mg
same,LC30,Helicoverpa armigera [7],148 ppm
same,LC90,Helicoverpa armigera [7],560 ppm
same,LC50,Helicoverpa armigera [7],218 µg/mL
same,mortality,Helicoverpa armigera [8],32%
CS/C(C)=N\OC(=O)N(C)SN(C)C(=O)O/N=C(\C)SC [THIODICARB],Time,Helicoverpa armigera [1],0.5 days
same,Activity,Helicoverpa armigera [2],23%
same,Time,Helicoverpa armigera [3],5.3 days
same,Activity,Helicoverpa armigera [4],30%
same,mortality,Helicoverpa armigera [5],20%
same,Activity,Helicoverpa armigera [6],294 mg
same,LC30,Helicoverpa armigera [7],550 ppm
same,LC90,Helicoverpa armigera [7],1987 ppm
same,LC50,Helicoverpa armigera [7],798 µg/mL
same,mortality,Helicoverpa armigera [8],20%
